{"source": "patent US8420100B2", "about": "“Tumor suppressor activating polypeptides and uses thereof” (Department of Biotechnology, priority 2006, dated 2013)", "key": {"[1]": {"target": "T1, p53 (Homo sapiens, UniProt P04637)", "T1 construct": "HEK 293 (p53^+/+) cells; endogenous in cells; host or cells: HEK 293", "T1 sequence (P04637 whole entry)": "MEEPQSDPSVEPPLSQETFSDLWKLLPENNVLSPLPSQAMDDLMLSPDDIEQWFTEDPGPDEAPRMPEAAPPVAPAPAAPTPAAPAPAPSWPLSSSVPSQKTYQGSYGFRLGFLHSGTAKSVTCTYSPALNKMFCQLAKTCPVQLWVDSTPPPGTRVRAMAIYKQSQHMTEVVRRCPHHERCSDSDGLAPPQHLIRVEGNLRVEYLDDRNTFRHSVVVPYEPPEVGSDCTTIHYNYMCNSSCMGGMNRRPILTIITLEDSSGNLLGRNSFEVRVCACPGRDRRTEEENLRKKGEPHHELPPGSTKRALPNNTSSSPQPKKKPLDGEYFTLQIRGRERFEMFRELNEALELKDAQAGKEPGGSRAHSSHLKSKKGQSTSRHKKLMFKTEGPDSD", "assay": "Indirect immunofluorescence of p53 in peptide-treated HEK 293 cells (confocal imaging)", "format": "cell-based", "conditions": "HEK 293, 10 μM peptide, 12 h", "experimental": "HEK 293 cells were treated with 10 μM of various TAT-SMAR1 derived peptides.\nFIG. 4. Serine 347 residue of SMAR1 mediates p53 activation and stabilization. A, HEK 293 cells were cultured at a density of 5×10^5 cells and 24 h later treated with 10 μM concentration of either the P44 or various serine-mutant peptides (PS347A, PS348A, PS349A, PS350A and RS mutant; SM). After 12 h of treatment, protein lysates were prepared and immunoblotted using pSer-15 p53 and pcdc-2 antibodies. Actin was used as the loading control. B, Peptides P44 (panel B), PS347A (panel C), PS348A (panel D), PS349A (panel E), PS350A (panel F) and SM (panel G) were incubated at a final concentration of 10 μM with HEK 293 cells for 12 h before indirect immunofluorescence detection with a primary antibody against p53 protein and a secondary fluorescein-conjugated anti-mouse IgG.\nImmunocytochemistry and confocal imaging: For direct detection of TRITC-labeled peptides, HEK 293 cells were plated directly on a glass coverslip and cultured overnight prior to their treatment to TRITC-conjugated various TAT-SMAR1 derived peptides. After 12 h incubation, three washings with cold PBS were given and the cells fixed with 3.7% paraformaldehyde before being mounted in PBS/Glycerol (1:1) containing antifading agent. For indirect immunodetection, 2×10^5 HEK 293 cells were plated and cultured overnight in 35 mm plates on glass coverslips. The cell monolayer was then treated with either of the various TAT SMAR1 derived peptides, dissolved directly in complete DMEM medium at the appropriate concentration (final concentration 10 μM). After 12 h incubation, cells were washed twice with cold PBS and fixed with 3.7% paraformaldehyde. Subsequently, fixed cells were stained for total p53 using anti-p53 (DO-1) (SantaCruz) for an hour at room temperature.\nFor detection, cells were incubated with a secondary-antibody mix containing FITC-conjugated anti-mouse IgG antibodies (Sigma) for 1 h at RT. Slides were then mounted in antifade mounting medium (Dako) and analyzed with a confocal laser scanning microscope (CLSM 510, version 2.01; Zeiss, Thornwood, N.Y.)."}, "[2]": {"system": "protein kinase C (PKC) family of proteins", "assay": "In vitro phosphorylation (kinase) assay with HEK 293 whole cell extract", "format": "biochemical", "conditions": "for phosphorylation of peptide by extract of staurosporine-treated cells: extract from 293 cells treated with 20 nM staurosporine (PKC inhibitor); for phosphorylation of peptide by whole cell extract: extract from untreated 293 cells"}, "[3]": {"system": "cdc2 (tyrosine 15 phosphorylation, pcdc-2)", "assay": "Western blotting for pcdc-2 in peptide-treated HEK 293 cells", "format": "cell-based", "conditions": "for pcdc-2 level: HEK 293, 10 μM peptide, 12 h (FIG. 4A); for pcdc-2 level compared to untreated cells: HEK 293, peptide-treated lysates (FIG. 3C, 3D)", "experimental": "P44 peptide controls the activity of cell cycle regulatory proteins: The minimal dose of P44 peptide that was functionally effective in activating p53 was evaluated by incubating HEK 293 cells with varying concentrations of P44 peptide (1-100 μM) (FIG. 3A) and after 12 h of incubation, protein lysates were prepared and processed for immunoblotting with total p53 (DO-1) and p53 ser-15 phospho-specific antibodies. […] However, there was a 4.5-fold increase in the expression of phosphorylated p53 (pSerine-15 p53) in P44 peptide-treated cells (FIG. 3A, lanes 2-6). To exclude the possibility that p53 activation is an effect of the protein transduction domain of HIV-1 TAT protein, similar set of experiment was performed using TAT-PTD peptide alone (consisting of only the 11-mer TAT-sequence). […] This observation reconfirmed that the RS domain (288-350 aa) of SMAR1 could exclusively activate p53 by mediating its phosphorylation specifically at serine-15 residue. Serine-15 phosphorylation of p53 is associated with its increased transcription efficiency, decreased affinity for MDM2, and its increased nuclear retention. One of the target genes activated by p53 is p21, an inhibitor of a subset of the cyclin-dependent kinases including cdc-2 (Sherr, C. J., and Roberts, J. M. (1999) Genes Dev. 13, 1501-1512). To evaluate the significance of peptide-mediated p53 activation, P44 peptide-treated lysates were further checked for tyrosine 15 phosphorylation of cdc2. […] HEK 293 cells were treated with SM peptide and checked for p53 as well as pcdc-2 levels.\nSerine 347 residue of SMAR1: critical for mediating the effects of full-length SMAR1: Once it was established that the serine motif (SSSSYS) plays a pivotal role in SMAR1-mediated p53 activation, it got necessary to identify the serine residue within this motif that might be necessary in mediating these effects. To identify the critical serine residue within P44 peptide, various point-mutant peptides were custom synthesized, that varied with respect to the position of serine residue that was mutated (Table 1). To evaluate the functionality of mutant chimeric TAT-SMAR1 peptides [PS347A, PS348A, PS349A, PS350A and RS mutant (SM)] in comparison to the TAT-SMAR1 WT peptide (P44), HEK 293 cells were treated with 10 μM concentration of either of the peptides and protein lysates were prepared after 12 h incubation period. The lysates were then processed for immunoblotting with pSer-15 p53 and pcdc-2 antibodies. […] However, this was not the case with other mutated peptides. When the alanine was replaced back to serine at the 347 residue (FIG. 4A, lanes 3-5), the functionality of the peptide was restored as observed with increase in pcdc-2 levels. […] However, in case of SM (where serine residues from 347-350 were replaced by alanines) treated cells (FIG. 4A, lane 7), there was no difference in the pSer-15 p53 as well as pcdc-2 levels compared to either untreated or PS347A treated cells (FIG. 4A, lanes 1 and 2, respectively).\nFIG. 3. P44 peptide activates p53-mediated cell cycle pathway. A, HEK 293 cells were seeded at a density of 5×10^5 and after 24 h, was incubated with increasing concentrations of the TAT-SMAR1 WT (P44) peptide. Protein lysates were prepared and then immunoblotted with antibodies to total p53, phospho serine-15. B, The same set of experiment was repeated with TAT PTD peptide representing the PTD carrier sequence alone and immunoblotted with phospho serine-15, in comparison of P44 treated cells. C, The status of phospho cdc-2 was further analyzed in P44 peptide treated cells. Total […] was used as an internal control. D, The same set of experiments were again repeated using TAT-SMAR1 RS mutant (SM) peptide and whole cell lysates were probed for phospho p53 serine-15 and pcdc-2 antibodies. […] was used as a loading control.\nFIG. 4. Serine 347 residue of SMAR1 mediates p53 activation and stabilization. […]"}}, "data": [{"sequence": "YGRKKRRQRRRTAWRRKQRGQSLAVKSFSRRTPASSSYSASETM [PS347A, point mutant of P44, serine 347 replaced by alanine]", "values": [{"measurement": "p53 activation and stabilization within the nucleus", "setting": "[1]", "value": "almost negligible expression of p53 within the nucleus"}, {"measurement": "phosphorylation of peptide by extract of staurosporine-treated cells", "setting": "[2]", "value": "no difference"}, {"measurement": "phosphorylation of peptide by whole cell extract", "setting": "[2]", "value": "abolished"}, {"measurement": "pcdc-2 level", "setting": "[3]", "value": "decreased"}]}, {"sequence": "YGRKKRRQRRRTAWRRKQRGQSLAVKSFSRRTPSSASYSASETM [PS349A, point mutant of P44, serine 349 replaced by alanine]", "values": [{"measurement": "p53 activation and stabilization within the nucleus", "setting": "[1]", "value": "p53 stabilization was observed"}, {"measurement": "phosphorylation of peptide by extract of staurosporine-treated cells", "setting": "[2]", "value": "failed to phosphorylate"}, {"measurement": "pcdc-2 level", "setting": "[3]", "value": "increase"}]}, {"sequence": "YGRKKRRQRRRTAWRRKQRGQSLAVKSFSRRTPSSSAYSASETM [PS350A, point mutant of P44, serine 350 replaced by alanine]", "values": [{"measurement": "p53 activation and stabilization within the nucleus", "setting": "[1]", "value": "p53 stabilization was observed"}, {"measurement": "phosphorylation of peptide by extract of staurosporine-treated cells", "setting": "[2]", "value": "failed to phosphorylate"}, {"measurement": "pcdc-2 level", "setting": "[3]", "value": "increase"}]}, {"sequence": "YGRKKRRQRRRTAWRRKQRGQSLAVKSFSRRTPSASSYSASETM [PS348A, point mutant of P44, serine 348 replaced by alanine]", "values": [{"measurement": "p53 activation and stabilization within the nucleus", "setting": "[1]", "value": "p53 stabilization was observed"}, {"measurement": "phosphorylation of peptide by extract of staurosporine-treated cells", "setting": "[2]", "value": "failed to phosphorylate"}, {"measurement": "pcdc-2 level", "setting": "[3]", "value": "increase"}]}, {"sequence": "YGRKKRRQRRRTAWRRKQRGQSLAVKSFSRRTPSSSSYSASETM [P44, 33 mer SMAR1 peptide (residues 324-357) conjugated with 11-mer TAT-PTD]", "values": [{"measurement": "p53 activation and stabilization within the nucleus", "setting": "[1]", "value": "activate and stabilize p53 within the nucleus"}, {"measurement": "phosphorylation of peptide by extract of staurosporine-treated cells", "setting": "[2]", "value": "failed to phosphorylate"}, {"measurement": "phosphorylation of peptide by whole cell extract", "setting": "[2]", "value": "gets phosphorylated"}, {"measurement": "increased γ-P32 ATP incorporation in comparison to mutant counterpart (SM)", "setting": "[2]; whole cell extract from untreated 293 cells", "value": "6 to 7", "unit": "fold"}, {"measurement": "pcdc-2 level", "setting": "[3]", "value": "increase"}, {"measurement": "pcdc-2 level compared to untreated cells", "setting": "[3]", "value": "upregulation"}]}, {"sequence": "YGRKKRRQRRRTAWRRKQRGQSLAVKSFSRRTPAAAAYSASETM [SM, P44 mutant where serine residues from 347-350 were replaced by alanines]", "values": [{"measurement": "p53 activation and stabilization within the nucleus", "setting": "[1]", "value": "almost negligible expression of p53 within the nucleus"}, {"measurement": "phosphorylation of peptide by extract of staurosporine-treated cells", "setting": "[2]", "value": "no difference"}, {"measurement": "phosphorylation of peptide by whole cell extract", "setting": "[2]", "value": "not and further reduction in its phosphorylation compared to PS347A peptide"}, {"measurement": "pcdc-2 level", "setting": "[3]", "value": "no difference"}, {"measurement": "pcdc-2 level compared to untreated cells", "setting": "[3]", "value": "no increase"}]}]}
